Test results reported in ChEMBL document CHEMBL1156187, “Discovery of a selective small-molecule melanocortin-4 receptor agonist with efficacy in a pilot study of sexual dysfunction in humans” (J Med Chem, 2010).

Assays:
Melanocortin receptor 5 [1] = target: T1, Melanocortin receptor 5 (Homo sapiens, UniProt P33032); assay: Agonist activity at human recombinant MC5 receptor expressed in HEK293 cells assessed as cAMP accumulation by beta lactamase reporter gene assay relative to alpha melanocyte-stimulating hormone; type: functional, cell-based
T1 sequence (P33032 whole entry, the tested form may be a part): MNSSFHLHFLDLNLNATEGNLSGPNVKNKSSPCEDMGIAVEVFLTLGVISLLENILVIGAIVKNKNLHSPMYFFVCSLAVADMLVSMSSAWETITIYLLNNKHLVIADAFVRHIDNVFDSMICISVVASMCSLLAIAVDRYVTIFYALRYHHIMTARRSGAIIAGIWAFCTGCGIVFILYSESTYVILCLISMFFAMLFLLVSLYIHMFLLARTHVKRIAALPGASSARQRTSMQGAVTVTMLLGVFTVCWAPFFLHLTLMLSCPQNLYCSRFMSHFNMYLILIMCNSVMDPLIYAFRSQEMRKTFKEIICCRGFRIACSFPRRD

Melanocortin receptor 3 [2] = target: T2, Melanocortin receptor 3 (Homo sapiens, UniProt P41968); assay: Agonist activity at human recombinant MC3 receptor expressed in CHO cells assessed as cAMP accumulation by enzyme fragment complementation assay; type: functional, cell-based
T2 sequence (P41968 whole entry, the tested form may be a part): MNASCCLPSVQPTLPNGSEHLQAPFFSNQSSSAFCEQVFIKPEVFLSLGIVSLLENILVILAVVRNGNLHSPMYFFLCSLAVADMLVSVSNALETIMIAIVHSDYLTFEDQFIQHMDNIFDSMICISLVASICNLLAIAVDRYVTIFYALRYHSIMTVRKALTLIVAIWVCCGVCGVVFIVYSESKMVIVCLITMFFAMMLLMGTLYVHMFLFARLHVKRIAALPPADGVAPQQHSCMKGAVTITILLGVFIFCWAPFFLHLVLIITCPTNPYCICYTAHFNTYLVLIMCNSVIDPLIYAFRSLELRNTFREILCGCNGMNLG

[3] = target: T3, Melanocyte-stimulating hormone receptor (Homo sapiens, UniProt Q01726); assay: Agonist activity at human recombinant MC1 receptor expressed in HEK293 cells assessed as cAMP accumulation by enzyme fragment complementation assay; type: functional, cell-based
Target sequence in this assay (Q01726 whole entry, the tested form may be a part): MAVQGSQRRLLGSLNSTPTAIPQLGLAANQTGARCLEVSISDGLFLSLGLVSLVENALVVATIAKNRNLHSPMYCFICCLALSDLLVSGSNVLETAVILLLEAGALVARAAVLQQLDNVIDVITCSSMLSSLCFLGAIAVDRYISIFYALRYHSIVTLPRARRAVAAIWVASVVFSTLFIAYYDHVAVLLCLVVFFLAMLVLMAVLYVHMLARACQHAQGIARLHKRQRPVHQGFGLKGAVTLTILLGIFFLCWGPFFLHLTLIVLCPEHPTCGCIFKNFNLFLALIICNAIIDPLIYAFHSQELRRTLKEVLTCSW

[4] = target: T3, Melanocyte-stimulating hormone receptor; assay: Agonist activity at human recombinant MC1 receptor expressed in HEK293 cells assessed as cAMP accumulation by enzyme fragment complementation assay relative to alpha melanocyte-stimulating hormone; type: functional, cell-based
Target sequence in this assay (Q01726 whole entry, looked up, the tested form may be a part): as the sequence (Q01726 whole entry, the tested form may be a part) above

Melanocortin receptor 4 [5] = target: T4, Melanocortin receptor 4 (Homo sapiens, UniProt P32245); assay: Displacement of [125I]-MT-II from human recombinant MC4 receptor expressed in CHO cells by scintillation counting
T4 sequence (P32245 whole entry): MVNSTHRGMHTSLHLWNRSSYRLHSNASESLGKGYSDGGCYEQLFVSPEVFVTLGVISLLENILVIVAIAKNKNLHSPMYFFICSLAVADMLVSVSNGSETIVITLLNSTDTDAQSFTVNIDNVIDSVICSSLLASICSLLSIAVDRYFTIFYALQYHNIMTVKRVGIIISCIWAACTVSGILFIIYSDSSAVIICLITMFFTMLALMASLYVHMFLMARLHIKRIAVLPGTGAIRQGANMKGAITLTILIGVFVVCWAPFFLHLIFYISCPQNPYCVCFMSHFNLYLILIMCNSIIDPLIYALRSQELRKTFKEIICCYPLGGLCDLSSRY

Melanocortin receptor 4 [6] = target: T4, Melanocortin receptor 4; assay: Agonist activity at human recombinant MC4 receptor expressed in CHO cells by cAMP responsive beta lactamase reporter gene assay; type: functional, cell-based
Melanocortin receptor 5 [7] = target: T1, Melanocortin receptor 5; assay: Agonist activity at human recombinant MC5 receptor expressed in HEK293 cells assessed as cAMP accumulation by beta lactamase reporter gene assay; type: functional, cell-based
[8] = target: Voltage-gated inwardly rectifying potassium channel KCNH2 (Homo sapiens, UniProt Q12809); assay: Displacement of [3H]dofetilide from human ERG expressed in CHO cells by patch clamp method
Voltage-gated inwardly rectifying potassium channel KCNH2, sequence (Q12809 whole entry): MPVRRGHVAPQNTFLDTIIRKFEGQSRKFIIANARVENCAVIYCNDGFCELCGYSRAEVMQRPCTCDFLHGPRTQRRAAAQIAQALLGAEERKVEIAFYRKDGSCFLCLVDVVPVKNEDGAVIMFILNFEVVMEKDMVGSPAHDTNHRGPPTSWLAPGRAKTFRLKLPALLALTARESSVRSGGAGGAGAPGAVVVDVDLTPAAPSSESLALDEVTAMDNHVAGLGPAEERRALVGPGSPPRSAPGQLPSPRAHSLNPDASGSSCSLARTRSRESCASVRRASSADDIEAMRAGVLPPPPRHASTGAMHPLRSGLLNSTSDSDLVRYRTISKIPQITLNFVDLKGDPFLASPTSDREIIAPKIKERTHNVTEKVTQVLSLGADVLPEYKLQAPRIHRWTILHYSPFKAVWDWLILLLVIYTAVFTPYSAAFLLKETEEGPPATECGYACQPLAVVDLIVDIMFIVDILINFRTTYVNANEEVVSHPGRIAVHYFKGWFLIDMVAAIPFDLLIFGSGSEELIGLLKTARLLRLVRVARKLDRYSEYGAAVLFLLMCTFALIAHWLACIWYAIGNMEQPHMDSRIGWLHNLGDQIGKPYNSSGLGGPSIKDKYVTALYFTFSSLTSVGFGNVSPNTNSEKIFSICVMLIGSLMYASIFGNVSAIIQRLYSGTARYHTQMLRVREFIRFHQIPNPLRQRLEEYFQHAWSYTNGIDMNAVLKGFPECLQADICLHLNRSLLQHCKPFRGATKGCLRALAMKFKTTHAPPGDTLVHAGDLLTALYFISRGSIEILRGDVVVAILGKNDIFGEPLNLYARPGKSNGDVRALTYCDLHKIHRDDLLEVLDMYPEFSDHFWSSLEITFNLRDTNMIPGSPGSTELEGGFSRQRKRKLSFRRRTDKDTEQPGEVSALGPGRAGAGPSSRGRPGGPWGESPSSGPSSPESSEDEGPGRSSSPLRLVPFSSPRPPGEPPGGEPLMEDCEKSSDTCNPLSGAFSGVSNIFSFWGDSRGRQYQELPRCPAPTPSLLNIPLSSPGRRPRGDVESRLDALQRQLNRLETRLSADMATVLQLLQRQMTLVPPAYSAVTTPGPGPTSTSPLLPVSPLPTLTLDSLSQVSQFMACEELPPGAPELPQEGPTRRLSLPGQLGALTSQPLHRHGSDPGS

[9] = Intrinsic clearance in human liver microsome measured per mg of protein; type: ADME; settings: liver microsomes
[10] = Lipophilicity, log D at pH 7.4; type: physicochemical; settings: buffer
Melanocortin receptor 3 [11] = target: T2, Melanocortin receptor 3; assay: Agonist activity at human recombinant MC3 receptor expressed in CHO cells assessed as cAMP accumulation by enzyme fragment complementation assay relative to […]; type: functional, cell-based
Liver microsomes = assay: Intrinsic clearance in rat liver microsome measured per mg of protein; type: ADME
[12] = Binding affinity to sodium channel
[13] = Volume of distribution at steady state in rat at 1 mg/kg, iv; type: ADME, organism-based; parameters: dose 1 mg/kg, route intravenous; settings: in vivo, read-out: Vdss
[14] = Apparent Permeability from apical to basolateral side of MDCK2 cells over expressing MDR1; type: ADME, cell-based, Canis lupus familiaris; settings: dog, MDCK-MDR1; read-out: permeability
[15] = Intrinsic clearance in dog liver microsome measured per mg of protein; type: ADME, Canis lupus familiaris; settings: microsomes
[16] = Association constant, pKa of the compound; type: physicochemical
[17] = Clearance in rat at 1 mg/kg, iv; type: ADME, organism-based; parameters: dose 1 mg/kg, route intravenous; settings: in vivo
[18] = Volume of distribution at steady state in dog plasma at 0.05 mg/kg, iv; type: ADME, organism-based, Canis lupus familiaris; parameters: dose 0.05 mg/kg, route intravenous; settings: read-out: Vdss
[19] = Half life in rat at 1 mg/kg, iv; type: ADME, organism-based; parameters: dose 1 mg/kg, route intravenous; settings: in vivo
[20] = Oral bioavailability in rat at 0.1 mg/kg; type: ADME, organism-based; settings: in vivo
[21] = Half life in dog at 0.05 mg/kg, iv; type: ADME, organism-based, Canis lupus familiaris; parameters: dose 0.05 mg/kg, route intravenous; settings: in vivo
[22] = Fraction unbound in rat plasma; type: ADME, cell-free
[23] = Clearance in dog plasma at 0.05 mg/kg, iv; type: ADME, organism-based, Canis lupus familiaris; parameters: dose 0.05 mg/kg, route intravenous
[24] = Apparent Permeability from basolateral to apical side of MDCK2 cells over expressing MDR1; type: ADME, cell-based, Canis lupus familiaris; settings: dog, MDCK-MDR1; read-out: permeability
[25] = Fraction unbound in dog plasma; type: ADME, cell-free, Canis lupus familiaris
[26] = Oral bioavailability in dog at 0.1 mg/kg; type: ADME, organism-based, Canis lupus familiaris; settings: in vivo

Row | Structure (SMILES) | Emax (Melanocortin receptor 5 [1]) [%] | EC50 (Melanocortin receptor 3 [2]) [nM] | EC50 [3] [nM] | Emax [4] [%] | Ki (Melanocortin receptor 4 [5]) [nM] | EC50 (Melanocortin receptor 4 [6]) [nM] | EC50 (Melanocortin receptor 5 [7]) [nM] | microsomal CLint [9] [µL/min/mg] | logD [10] | Emax (Melanocortin receptor 3 [11]) [%] | Ki [8] [nM] | also measured
1 | CCCCN1C[C@H](C(=O)N2C[C@@H](C)[C@](O)(c3ccccc3)[C@@H](C)C2)[C@@H](c2ccc(F)cc2F)C1 | 72 | > 5720 | 1100 | 72 | 233 | 105 | 1430 | – | – | – | – | –
2 | C[C@@H]1CN(C(=O)[C@@H]2CNC[C@H]2c2ccc(F)cc2F)C[C@H](C)[C@@]1(O)c1ccccc1 | – | > 25200 | > 8740 | – | 264 | 462 | > 20000 | – | – | – | 6650 | –
3 | CCC[C@@]1(O)[C@H](C)CN(C(=O)[C@@H]2CN(C(C)(C)C)C[C@H]2c2ccc(F)cc2F)C[C@@H]1C | – | > 24700 | 3610 | 95 | 844 | 126 | – | – | – | – | – | –
4 | C[C@@H]1CN(C(=O)[C@@H]2CN(C(C)(C)C)C[C@H]2c2ccc(F)cc2F)C[C@H](C)[C@@]1(O)c1ccc(F)cc1F | 84 | 10700 | 6570 | 93 | 176 | 62 | – | – | – | – | – | –
5 | C[C@@H]1CN(C(=O)[C@H]2CN(C3CCOCC3)C[C@@H]2c2ccc(F)cc2F)C[C@H](C)[C@@]1(O)c1ccccc1 | – | > 14500 | > 11900 | – | 36 | 18 | > 20000 | 151 | 3.1 | – | > 5270 | –
6 | C[C@@H]1CN(C(=O)[C@H]2CN(C3CC3)C[C@@H]2c2ccc(F)cc2F)C[C@H](C)[C@@]1(O)c1ccccc1 | – | > 33300 | > 4910 | – | 290 | 55 | – | 342 | > 4 | – | > 9170 | –
7 | C[C@@H]1CN(C(=O)[C@@H]2CN(C(C)(C)C)C[C@H]2c2ccc(F)cc2F)C[C@H](C)[C@@]1(O)c1ccccn1 | 100 | > 33300 | 1170 | 97 | 350 | 46 | – | – | – | – | 5840 | –
8 | CCCC[C@H](NC(C)=O)C(=O)N[C@H]1CC(=O)NCCCC[C@@H](C(N)=O)NC(=O)[C@H](Cc2c[nH]c3ccccc23)NC(=O)[C@H](CCCNC(=N)N)NC(=O)C(Cc2ccccc2)NC(=O)[C@H](CC2=NC=NC2)NC1=O (single isomer, unassigned) | 61 | – | – | 98 | – | – | – | – | – | 87 | – | –
9 | CC(C)N1C[C@@H](C(=O)N2C[C@@H](C)[C@](O)(c3ccccc3)[C@@H](C)C2)[C@H](c2ccc(F)cc2F)C1 | 103 | 11600 | 750 | 100 | 114 | 69 | 3640 | 128 | 3.2 | 72 | > 7880 | –

More lines, in order of falling EC50 (Melanocortin receptor 3 [2]), values ahead:

Row | Emax (Melanocortin receptor 5 [1]) [%] | EC50 (Melanocortin receptor 3 [2]) [nM] | EC50 [3] [nM] | Emax [4] [%] | Ki (Melanocortin receptor 4 [5]) [nM] | EC50 (Melanocortin receptor 4 [6]) [nM] | EC50 (Melanocortin receptor 5 [7]) [nM] | microsomal CLint [9] [µL/min/mg] | logD [10] | Emax (Melanocortin receptor 3 [11]) [%] | Structure (SMILES) | Ki [8] [nM] | also measured
10 | – | 7480 | 3900 | 104 | 56 | 21 | – | > 440 | 2.8 | 79 | CCC[C@@]1(O)[C@H](C)CN(C(=O)[C@H]2CN(c3cccnn3)C[C@@H]2c2ccc(F)cc2F)C[C@@H]1C | – | –
11 | – | 4570 | > 5010 | – | 99 | 45 | > 5810 | – | – | 76 | C[C@@H]1CN(C(=O)[C@@H]2CN(C(C)(C)C)C[C@H]2c2ccc(F)cc2F)C[C@H](C)[C@@]1(O)c1c(F)cccc1F | 5000 | –
12 | 107 | 3680 | > 5880 | – | 48 | 30 | 5190 | 16 | 3.9 | 75 | C[C@@H]1CN(C(=O)[C@@H]2CN(C(C)(C)C)C[C@H]2c2ccc(F)cc2F)C[C@H](C)[C@@]1(O)c1ccc(Cl)cc1 | > 10000 | –
13 | – | 3660 | 1850 | 67 | 52 | 7 | – | > 440 | 3 | 75 | C[C@@H]1CN(C(=O)[C@H]2CN(c3cccnn3)C[C@@H]2c2ccc(F)cc2F)C[C@H](C)[C@@]1(O)c1ccccn1 | – | –
14 | 116 | 3050 | 1120 | 99 | 36 | 18 | 3600 | 28 | 3.1 | 79 | C[C@@H]1CN(C(=O)[C@@H]2CN(C(C)(C)C)C[C@H]2c2ccc(F)cc2F)C[C@H](C)[C@@]1(O)c1ccc(F)cc1.Cl | – | clearance (Liver microsomes): 47 µL/min/mg; Ki [12]: 520 nM; Vd [13]: 11 L/kg; Papp A→B [14]: 26 ×10⁻⁶ cm/s; clearance [15]: 8 µL/min/mg; pKa [16]: 8.74; clearance [17]: 34 mL/min/kg; Vd [18]: 11 L/kg; half-life [19]: 3.9 h; bioavailability [20]: 74%; half-life [21]: 10.4 h; fraction unbound [22]: 0.04; clearance [23]: 12 mL/min/kg; Papp B→A [24]: 22 ×10⁻⁶ cm/s; fraction unbound [25]: 0.09; bioavailability [26]: 28%
15 | – | 600 | > 9000 | – | 64 | 4 | > 14000 | – | – | 75 | C[C@@H]1CN(C(=O)[C@H]2CN(c3ccncn3)C[C@@H]2c2ccc(F)cc2F)C[C@H](C)[C@@]1(O)c1ccccc1 | > 10000 | –
16 | 74 | 570 | > 6470 | – | 97 | 6 | 1800 | 52 | 3.3 | 81 | C[C@@H]1CN(C(=O)[C@@H]2CN(C(C)(C)C)C[C@H]2c2ccc(F)cc2F)C[C@H](C)[C@@]1(O)c1cccc(F)c1 | – | –
17 | – | 500 | 350 | 79 | 62 | 32 | – | – | – | 81 | C[C@@H]1CN(C(=O)[C@H]2CN(C3CCC3)C[C@@H]2c2ccc(F)cc2F)C[C@H](C)[C@@]1(O)c1ccccc1 | – | –
18 | – | 65 | > 8220 | – | 50 | 5 | – | – | – | 90 | C[C@@H]1CN(C(=O)[C@H]2CN(c3cccnc3)C[C@@H]2c2ccc(F)cc2F)C[C@H](C)[C@@]1(O)c1ccccc1 | 5070 | –
